Test results reported in the supplement of paper PMC10307832.

Tests used:
Test in all cases: relative viability (nuclei count vs DMSO), 5 days (fraction); higher = more cells survive
SGI-1776 + Foretinib = compound: CN1CCC(CNc2ccc3ncc(-c4cccc(OC(F)(F)F)c4)n3n2)CC1 [SGI-1776] + COc1cc2c(Oc3ccc(NC(=O)C4(C(=O)Nc5ccc(F)cc5)CC4)cc3F)ccnc2cc1OCCCN1CCOCC1 [Foretinib] (partner 0.25 µM)
How it was run: (§1)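 Lung cancer cell lines were seeded in 1536-well plates and dosed by pin tool the next day, with either a single drug or a fixed anchor-drug dose combined with five library-drug doses (not always all listed) spaced in √10 steps. Five days later, one step fixed the cells and stained their nuclei (final 0.05% Triton X-100, 1% formaldehyde, 1 ug/ml Hoechst), and nuclei were counted on 4× images. Relative viability is the nuclei count in treated wells divided by the count in vehicle wells, and each value is the median of duplicate plates.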

[1] = compound: C1COCCN1C2=NC(=NC3=C2OC4=C3C=CC=N4)C5=CC(=CC=C5)NC(=O)C6=CN=C(C=C6)N + Cc1cc(Nc2cc(N3CCN(C)CC3)nc(Sc3ccc(NC(=O)C4CC4)cc3)n2)n[nH]1 [Tozasertib] (partner 0.1 µM)
How it was run: as §1

SGI-1776 + Palbociclib = compound: CN1CCC(CNc2ccc3ncc(-c4cccc(OC(F)(F)F)c4)n3n2)CC1 [SGI-1776] + CC(=O)c1c(C)c2cnc(Nc3ccc(N4CCNCC4)cn3)nc2n(C2CCCC2)c1=O [Palbociclib] (partner 0.5 µM)
How it was run: as §1

SGI-1776 + Pemetrexed = compound: CN1CCC(CNc2ccc3ncc(-c4cccc(OC(F)(F)F)c4)n3n2)CC1 [SGI-1776] + Nc1nc2[nH]cc(CCc3ccc(C(=O)N[C@@H](CCC(=O)O)C(=O)O)cc3)c2c(=O)[nH]1 [Pemetrexed] (partner 0.2 µM)
How it was run: as §1

## UMC-11
SGI-1776 + Foretinib; first compound 0.08 µM
  relative viability: 1.02
SGI-1776 + Foretinib; first compound 0.8 µM
  relative viability: 1.03
SGI-1776 + Foretinib; first compound 2.53 µM
  relative viability: 1.08
SGI-1776 + Foretinib; first compound 8 µM
  relative viability: 0.791
[1]; first compound 0.02 µM
  relative viability: 0.205
[1]; first compound 0.06325 µM
  relative viability: 0.188
[1]; first compound 0.2 µM
  relative viability: 0.193
[1]; first compound 0.6325 µM
  relative viability: 0.182
[1]; first compound 2 µM
  relative viability: 0.177
SGI-1776 + Palbociclib; first compound 0.08 µM
  relative viability: 0.366
SGI-1776 + Palbociclib; first compound 0.8 µM
  relative viability: 0.338
SGI-1776 + Palbociclib; first compound 2.53 µM
  relative viability: 0.378
SGI-1776 + Palbociclib; first compound 8 µM
  relative viability: 0.312
SGI-1776 + Pemetrexed; first compound 0.08 µM
  relative viability: 0.828
SGI-1776 + Pemetrexed; first compound 0.8 µM
  relative viability: 0.864
SGI-1776 + Pemetrexed; first compound 2.53 µM
  relative viability: 0.699
SGI-1776 + Pemetrexed; first compound 8 µM
  relative viability: 0.558
